Source: US7320806B2, “Compositions and methods for treating NIDDM and other conditions and disorders associated with AMPK regulation” (priority 2003, dated 2008)
Entries after “also recorded” stand apart in the source; their conditions may differ.

What was measured:
[1] = system: rat epitrochlearis muscles; details: 30 microU/ml insulin, treated 3.5 h previously; cited from earlier work
3T3-L1 adipocytes = details: added at an early phase of differentiation; cited from earlier work
[2] = administered before ischemia; cited from earlier work
astrocytes = details: incubation of astrocytes; cited from earlier work
AMPK = details: cited from earlier work
hippocampal neurons = details: glucose deprivation, chemical hypoxia, glutamate, amyloid beta-peptide; cited from earlier work
[3] = chronic administration; cited from earlier work
L6 muscle cells = test: glucose uptake (2-NBDG) in L6 myotubes; format: cell-based
Procedure: The permeate portion of GMM was tested for glucose uptake in L6 muscle cells. L6 cells were grown as monolayers in Dulbecco's modified Eagle's medium (DMEM) containing 1 mM glutamine, 1 mM pyruvate and 25 mM glucose. The medium was supplemented with 5% fetal calf serum (FCS). Experiments were undertaken in 48-well plates seeded from pre-confluent flasks with 50 000 cells per well. The cells were grown to confluence and the medium was changed to DMEM containing 0.5% FCS and 2.5 mM glucose (L6 Myo Medium) for at least 76 hrs to induce differentiation of L6 cells and formation of L6 myotubes. Myotubes were then incubated with test substances for 30 minutes—Protocol SMM, or in Dulbecco's PBS supplemented with 20 mM Hepes and 2 mM glucose without serum—Serum-free Medium (SFM) Protocol as described by Fryer et al. (Activation of glucose transport by AMP-activated protein kinase via stimulation of Nitric oxide synthase, Diabetes, 49(12), 1978-85, 2000, Fryer LGD, et al, herein incorporated by reference in its entirety.).
Next, 30 uM of 2-NBDG was added for 2 minutes at 22 C. Subsequently, cell culture medium was removed and cells were washed twice with cold DPBS. Then, cells were lysed in 0.5% SDS. Fluorescence was measured at 466/542 nm (excitation/emission) using 100 ul of cell lysate in 2 ml of water.
Cells were cultured, and treated in L6 Myo Medium (SSM)—SSM Protocol or in serum-free medium (SFM—DPBS containing 20 mM Hepes, 2 mM glucose)—SFM Protocl as described by Fryer et al. Glucose uptake was measured by adding 30 uM of 2-NBDG for 2′ at 22 C. Experiments were performed in duplicates.
L-NMMA has been used in the experiment to verify whether GMM-induced glucose transport in L6 cells is or is not inhibited by NOS inhibitors, thus mimicking AICAR-induced mechanism of increased glucose transport. […]
In FIG. 14, permeate cells were tested to determine whether permeate-induced glucose uptake could be inhibited by L-NMMA at the same concentration as that used for inhibition of the AICA effect on glucose uptake. […] Glucose uptake was measured at 22 C for 2 minutes.

AMPK alpha2 = details: treatment for 10 weeks; cited from earlier work

For `NC(=O)c1ncn([C@@H]2O[C@H](COP(=O)(O)O)[C@@H](O)[C@H]2O)c1N` [AICAR, 5′-aminoimidazole 4-carboxamide 1-ribonucleotide], the “increase in glucose transport in response to insulin versus untreated control muscles” value [1] is listed as “about twofold greater”, the “differentiation of 3T3-L1 adipocytes” value (3T3-L1 adipocytes) is listed as “inhibit the differentiation” and the “energy metabolism and hepatic injury” value [2] is listed as “simulated the benefits of preconditioning”. The “ketogenesis from palmitate and carnitine palmitoyltransferase I” value (astrocytes) was “stimulate”, the “increase in AMPK activity over the resting level” value (AMPK) was “two- to three-fold increase” and the neuronal death (hippocampal neurons) was “protected hippocampal neurons against death”. The GLUT4 protein expression [3] was “enhance”, the HDL cholesterol levels [3] was “increased” and the “fasting concentrations of glucose and insulin” value [3] was “decreased”. The “lowering of systolic blood pressure” value [3] was 14.6+/−4.3 mmHg, the “oral glucose tolerance test” value [3] was “normalized” and the plasma triglyceride levels [3] was “significantly reduced”.

In the case of `CC(=O)O.CNC(=N)NCCC[C@H](N)C(=O)O` [L-NMMA, NG-methyl-L-arginine, acetate salt], the “effect on permeate/GMM-induced glucose uptake” value (L6 muscle cells; L-NMMA 300 uM, 30 minutes pre-treatment in DPBS, acetate salt) is reported as “inhibits; also recorded: blocks”.

For `CN(C)C(=N)N=C(N)N` [Metformin, metformin], the “AMPK alpha2 activity in the skeletal muscle” value (AMPK alpha2) is listed as “significantly increased”.

With insulin the glucose uptake increase (L6 muscle cells; culture medium supplemented with 0.5% FCS (SSM)) was 100-120% and the glucose uptake increase (L6 muscle cells; serum-free medium (DPBS)) was 40-50%.
